Data: PubChem BioAssay AID248 (DTP/NCI, 2004)
Values joined by “and” are separate entries in the source; they are usually repeats but may differ in a detail not shown here. Identical values can stand only once. Toxic doses and inconclusive results are not listed.

Test system: L1210 leukemia ip in BDF1 mice, survival T/C
Assay: NCI In Vivo Anticancer Drug Screen. Data for tumor model L1210 Leukemia (intraperitoneal) in B6D2F1 (BDF1) mice
Conditions: vehicle: saline, higher = longer survival
How it was run: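 In this screen, tumor-bearing mice given compound are compared to those given vehicle, and their survival values are reported as a treated-to-control quotient.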

Question: What does the source list for `N[C@H](C(=O)O)[C@@H]1CC(Cl)=NO1`?
Answer: T/C (endpoint: mean survival time, dose: 0.1 mg/kg/injection, schedule: Q03HX024 (ip)): 120 % of control; T/C (endpoint: mean survival time, dose: 0.39 mg/kg/injection, schedule: Q01DX009 (sc)): 119 % of control and 121 % of control; T/C (endpoint: mean survival time, dose: 0.39 mg/kg/injection, schedule: Q03HX024 (ip)): 194 % of control; T/C (endpoint: mean survival time, dose: 0.78 mg/kg/injection, schedule: Q01DX009 (oral)): 123 % of control; T/C (endpoint: mean survival time, dose: 1.0 mg/kg/injection, schedule: Q01DX009 (ip)): 123 % of control and 124 % of control; T/C (endpoint: mean survival time, dose: 1.56 mg/kg/injection, schedule: Q01DX009 (oral)): 151 % of control; T/C (endpoint: mean survival time, dose: 3.12 mg/kg/injection, schedule: Q01DX001 (ip)): 107 % of control; T/C (endpoint: mean survival time, dose: 3.12 mg/kg/injection, schedule: Q04DX003 (ip)): 107 % of control; T/C (endpoint: mean survival time, dose: 4.0 mg/kg/injection, schedule: Q01DX009 (ip)): 152 % of control; T/C (endpoint: mean survival time, dose: 6.2 mg/kg/injection, schedule: Q04DX003 (ip)): 115 % of control and 116 % of control; T/C (endpoint: mean survival time, dose: 6.25 mg/kg/injection, schedule: Q01DX001 (ip)): 112 % of control; T/C (endpoint: mean survival time, dose: 6.25 mg/kg/injection, schedule: Q01DX009 (oral)): 107 % of control and 110 % of control; T/C (endpoint: mean survival time, dose: 6.25 mg/kg/injection, schedule: Q01DX009 (sc)): 105 % of control; T/C (endpoint: mean survival time, dose: 12.5 mg/kg/injection, schedule: Q01DX001 (ip)): 119 % of control; T/C (endpoint: mean survival time, dose: 12.5 mg/kg/injection, schedule: Q01DX009 (sc)): 101 % of control; T/C (endpoint: mean survival time, dose: 12.5 mg/kg/injection, schedule: Q04DX003 (ip)): 109 % of control and 110 % of control; T/C (endpoint: mean survival time, dose: 16.0 mg/kg/injection, schedule: Q01DX009 (ip)): 102 % of control; T/C (endpoint: mean survival time, dose: 25.0 mg/kg/injection, schedule: Q01DX009 (sc)): 94 % of control and 95 % of control; T/C (endpoint: mean survival time, dose: 25.0 mg/kg/injection, schedule: Q03HX008 (ip)): 153 % of control; T/C (endpoint: mean survival time, dose: 25.0 mg/kg/injection, schedule: Q04DX003 (ip)): 116 % of control and 120 % of control; T/C (endpoint: mean survival time, dose: 32.0 mg/kg/injection, schedule: Q01DX009 (ip)): 104 % of control and 115 % of control; T/C (endpoint: mean survival time, dose: 50.0 mg/kg/injection, schedule: Q04DX003 (ip)): 120 % of control and 123 % of control; T/C (endpoint: median survival time, dose: 0.25 mg/kg/injection, schedule: Q03HX024 (ip)): 117 % of control; T/C (endpoint: median survival time, dose: 0.39 mg/kg/injection, schedule: Q03HX024 (ip)): 175 % of control; T/C (endpoint: median survival time, dose: 0.5 mg/kg/injection, schedule: Q03HX016 (ip)): 124 % of control; T/C (endpoint: median survival time, dose: 0.78 mg/kg/injection, schedule: Q01DX009 (ip)): 153 % of control; T/C (endpoint: median survival time, dose: 0.78 mg/kg/injection, schedule: Q03HX016 (ip)): 150 % of control; T/C (endpoint: median survival time, dose: 0.78 mg/kg/injection, schedule: Q03HX024 (ip)): 191 % of control; T/C (endpoint: median survival time, dose: 1.0 mg/kg/injection, schedule: Q01DX009 (sc)): 122 % of control; T/C (endpoint: median survival time, dose: 1.0 mg/kg/injection, schedule: Q03HX008 (ip)): 120 % of control; T/C (endpoint: median survival time, dose: 1.0 mg/kg/injection, schedule: Q03HX024 (ip)): 159 % of control; T/C (endpoint: median survival time, dose: 1.56 mg/kg/injection, schedule: Q03HX016 (ip)): 159 % of control; T/C (endpoint: median survival time, dose: 2.0 mg/kg/injection, schedule: Q03HX016 (ip)): 150 % of control; T/C (endpoint: median survival time, dose: 2.0 mg/kg/injection, schedule: Q03HX024 (ip)): 181 % of control; T/C (endpoint: median survival time, dose: 2.0 mg/kg/injection, schedule: Q04DX003 (ip)): 106 % of control; T/C (endpoint: median survival time, dose: 3.12 mg/kg/injection, schedule: Q01DX009 (ip)): 94 % of control; T/C (endpoint: median survival time, dose: 3.12 mg/kg/injection, schedule: Q03HX008 (ip)): 154 % of control; T/C (endpoint: median survival time, dose: 3.12 mg/kg/injection, schedule: Q03HX016 (ip)): 166 % of control; T/C (endpoint: median survival time, dose: 4.0 mg/kg/injection, schedule: Q01DX009 (ip)): 158 % of control; T/C (endpoint: median survival time, dose: 4.0 mg/kg/injection, schedule: Q03HX016 (ip)): 153 % of control; T/C (endpoint: median survival time, dose: 4.0 mg/kg/injection, schedule: Q04DX003 (ip)): 110 % of control; T/C (endpoint: median survival time, dose: 4.0 mg/kg/injection, schedule: Q08DX002 (ip)): 104 % of control; T/C (endpoint: median survival time, dose: 6.25 mg/kg/injection, schedule: Q03HX016 (ip)): 182 % of control; T/C (endpoint: median survival time, dose: 8.0 mg/kg/injection, schedule: Q01DX001 (ip)): 100 % of control; T/C (endpoint: median survival time, dose: 8.0 mg/kg/injection, schedule: Q01DX001 (sc)): 114 % of control; T/C (endpoint: median survival time, dose: 8.0 mg/kg/injection, schedule: Q01DX009 (ip)): 165 % of control; T/C (endpoint: median survival time, dose: 8.0 mg/kg/injection, schedule: Q01DX009 (sc)): 162 % of control; T/C (endpoint: median survival time, dose: 8.0 mg/kg/injection, schedule: Q03HX016 (ip)): 162 % of control; T/C (endpoint: median survival time, dose: 8.0 mg/kg/injection, schedule: Q08DX002 (ip)): 114 % of control; T/C (endpoint: median survival time, dose: 12.5 mg/kg/injection, schedule: Q01DX001 (ip)): 115 % of control; T/C (endpoint: median survival time, dose: 12.5 mg/kg/injection, schedule: Q03HX016 (ip)): 171 % of control; T/C (endpoint: median survival time, dose: 12.5 mg/kg/injection, schedule: Q03HX024 (ip)): 93 % of control; T/C (endpoint: median survival time, dose: 12.5 mg/kg/injection, schedule: Q04DX003 (ip)): 153 % of control; T/C (endpoint: median survival time, dose: 12.5 mg/kg/injection, schedule: Q08DX002 (ip)): 151 % of control; T/C (endpoint: median survival time, dose: 16.0 mg/kg/injection, schedule: Q01DX001 (ip)): 99 % of control; T/C (endpoint: median survival time, dose: 16.0 mg/kg/injection, schedule: Q01DX001 (sc)): 105 % of control; T/C (endpoint: median survival time, dose: 16.0 mg/kg/injection, schedule: Q01DX009 (oral)): 94 % of control; T/C (endpoint: median survival time, dose: 16.0 mg/kg/injection, schedule: Q01DX009 (sc)): 109 % of control; T/C (endpoint: median survival time, dose: 16.0 mg/kg/injection, schedule: Q03HX016 (ip)): 155 % of control; T/C (endpoint: median survival time, dose: 16.0 mg/kg/injection, schedule: Q04DX003 (ip)): 120 % of control; T/C (endpoint: median survival time, dose: 16.0 mg/kg/injection, schedule: Q08DX002 (ip)): 106 % of control; T/C (endpoint: median survival time, dose: 25.0 mg/kg/injection, schedule: Q01DX001 (ip)): 108 % of control; T/C (endpoint: median survival time, dose: 25.0 mg/kg/injection, schedule: Q04DX003 (ip)): 154 % of control; T/C (endpoint: median survival time, dose: 32.0 mg/kg/injection, schedule: Q01DX001 (ip)): 113 % of control; T/C (endpoint: median survival time, dose: 32.0 mg/kg/injection, schedule: Q01DX001 (sc)): 107 % of control; T/C (endpoint: median survival time, dose: 32.0 mg/kg/injection, schedule: Q01DX009 (ip)): 103 % of control; T/C (endpoint: median survival time, dose: 32.0 mg/kg/injection, schedule: Q08DX002 (ip)): 114 % of control; T/C (endpoint: median survival time, dose: 50.0 mg/kg/injection, schedule: Q01DX001 (ip)): 122 % of control; T/C (endpoint: median survival time, dose: 50.0 mg/kg/injection, schedule: Q04DX003 (ip)): 188 % of control; T/C (endpoint: median survival time, dose: 50.0 mg/kg/injection, schedule: Q08DX002 (ip)): 151 % of control; T/C (endpoint: median survival time, dose: 64.0 mg/kg/injection, schedule: Q01DX001 (ip)): 113 % of control; T/C (endpoint: median survival time, dose: 64.0 mg/kg/injection, schedule: Q01DX001 (oral)): 112 % of control and 114 % of control; T/C (endpoint: median survival time, dose: 64.0 mg/kg/injection, schedule: Q01DX001 (sc)): 116 % of control; T/C (endpoint: median survival time, dose: 64.0 mg/kg/injection, schedule: Q08DX002 (ip)): 109 % of control; T/C (endpoint: median survival time, dose: 128.0 mg/kg/injection, schedule: Q01DX001 (ip)): 116 % of control; T/C (endpoint: median survival time, dose: 128.0 mg/kg/injection, schedule: Q01DX001 (oral)): 119 % of control; T/C (endpoint: median survival time, dose: 128.0 mg/kg/injection, schedule: Q01DX001 (sc)): 115 % of control; T/C (endpoint: median survival time, dose: 128.0 mg/kg/injection, schedule: Q08DX002 (ip)): 119 % of control; T/C (endpoint: median survival time, dose: 256.0 mg/kg/injection, schedule: Q01DX001 (ip)): 110 % of control; T/C (endpoint: median survival time, dose: 256.0 mg/kg/injection, schedule: Q01DX001 (oral)): 116 % of control; T/C (endpoint: median survival time, dose: 256.0 mg/kg/injection, schedule: Q01DX001 (sc)): 120 % of control; T/C (endpoint: median survival time, dose: 400.0 mg/kg/injection, schedule: Q01DX001 (ip)): 93 % of control; T/C (endpoint: median survival time, dose: 400.0 mg/kg/injection, schedule: Q08DX002 (ip)): 116 % of control
